Holding throughout (format): biochemical
Assay [1] concerns the target c-Met (Homo sapiens, UniProt P08581). Nature of the assay: c-Met Inhibition Assay, coupled enzyme system. Conditions: enzyme inhibition data (Ki), Table 11. The protocol: Compounds are screened for their ability to inhibit c-Met kinase activity using a standard coupled enzyme system (Fox et al., Protein Sci. 1998, 7, 2249). Reactions are carried out in a solution containing 100 mM HEPES (pH 7.5), 10 mM MgCl2, 25 mM NaCl, 300 μM NADH, 1 mM DTT, and 1.5% DMSO. Final substrate concentrations in the assay are 200 μM ATP (Sigma Chemicals, St Louis, Mo.) and 10 μM polyGluTyr (Sigma Chemical Company, St. Louis). Reactions are carried out at 30° C. and 80 nM c-Met. Final concentrations of the components of the coupled enzyme system are 2.5 mM phosphoenolpyruvate, 300 μM NADH, 30 μg/ml pyruvate kinase and 10 μg/ml lactate dehydrogenase.
An assay stock buffer solution is prepared containing all of the reagents listed above with the exception of ATP and a test compound of the present invention. The assay stock buffer solution (175 μl) is incubated in a 96 well plate with 5 μl of the test compound of the present invention at final concentrations spanning 0.006 μM to 12.5 μM at 30° C. for 10 minutes. Typically, a 12-point titration is conducted by preparing serial dilutions (from 10 mM compound stocks) with DMSO of the test compounds of the present invention in daughter plates. The reaction is initiated by the addition of 20 μl of ATP (final concentration 200 μM). Rates of reaction are obtained using a Molecular Devices Spectramax plate reader (Sunnyvale, Calif.) over 10 minutes at 30° C. The Ki values are determined from the rate data as a function of inhibitor concentration.

Assay [2] concerns the target T1, Itk (Homo sapiens, UniProt Q08881).
T1 sequence (Q08881 1-620): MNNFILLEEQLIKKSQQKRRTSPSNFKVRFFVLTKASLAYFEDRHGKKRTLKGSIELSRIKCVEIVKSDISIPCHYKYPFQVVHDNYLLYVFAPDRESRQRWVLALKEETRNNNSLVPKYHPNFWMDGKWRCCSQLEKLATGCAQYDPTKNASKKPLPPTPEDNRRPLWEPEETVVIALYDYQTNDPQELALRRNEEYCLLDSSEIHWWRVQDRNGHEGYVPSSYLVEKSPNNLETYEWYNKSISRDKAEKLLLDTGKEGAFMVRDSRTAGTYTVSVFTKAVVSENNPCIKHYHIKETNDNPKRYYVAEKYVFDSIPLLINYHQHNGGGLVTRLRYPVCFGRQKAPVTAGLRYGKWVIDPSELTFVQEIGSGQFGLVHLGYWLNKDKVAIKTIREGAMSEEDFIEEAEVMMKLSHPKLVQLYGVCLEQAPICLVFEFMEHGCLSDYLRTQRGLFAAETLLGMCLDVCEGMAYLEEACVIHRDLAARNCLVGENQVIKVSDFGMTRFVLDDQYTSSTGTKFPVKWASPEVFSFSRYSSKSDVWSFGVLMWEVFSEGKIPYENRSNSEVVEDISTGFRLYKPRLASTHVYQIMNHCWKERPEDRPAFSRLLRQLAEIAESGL
Nature of the assay: ITK Inhibition Assay (Radiometric), radioactive-phosphate incorporation. Particulars: enzyme inhibition data (Ki), Table 11; radiometric or UV assay not stated. The protocol:
Assays are carried out in a mixture of 20 mM MOPS (pH 7.0), 10 mM MgCl2, 0.1% BSA and 1 mM DTT. Final substrate concentrations in the assay are 7.5 μM [γ-33P]ATP (400 mCi 33P ATP/mmol ATP, Amersham Pharmacia Biotech/Sigma Chemicals) and 3 μM peptide (SAM68 protein D332-443). Assays are carried out at 25° C. in the presence of 50 nM Itk. An assay stock buffer solution is prepared containing all of the reagents listed above, with the exception of ATP and the test compound of interest. 50 μL of the stock solution is placed in a 96 well plate followed by addition of 2 μL of DMSO stock containing serial dilutions of the test compound (typically starting from a final concentration of 50 μM with 2-fold serial dilutions) in duplicate (final DMSO concentration 2%). The plate is pre-incubated for 10 minutes at 25° C. and the reaction initiated by addition of 50 μL [γ-33P]ATP (final concentration 7.5 μM).
The reaction is stopped after 10 minutes by the addition of […] 0.2M phosphoric acid+0.01% TWEEN 20. A multiscreen phosphocellulose filter 96-well plate (Millipore, Cat no. MAPHN0B50) is pretreated with 100 μL 0.2M phosphoric acid +0.01% TWEEN 20 prior to the addition of […] of the stopped assay mixture. The plate is washed with 4×200 μL 0.2M phosphoric acid+0.01% TWEEN 20. After drying, 30 μL Optiphase ‘SuperMix’ liquid scintillation cocktail (Perkin Elmer) is added to the well prior to scintillation counting (1450 Microbeta Liquid Scintillation Counter, Wallac).
Ki(app) data are calculated from non-linear regression analysis of the initial rate data using the Prism software package (GraphPad Prism version 3.0cx for Macintosh, GraphPad Software, San Diego Calif., USA).

Assay [3] has as its target T2, JAK3 (Homo sapiens, UniProt P52333).
T2 sequence (P52333 1-1124): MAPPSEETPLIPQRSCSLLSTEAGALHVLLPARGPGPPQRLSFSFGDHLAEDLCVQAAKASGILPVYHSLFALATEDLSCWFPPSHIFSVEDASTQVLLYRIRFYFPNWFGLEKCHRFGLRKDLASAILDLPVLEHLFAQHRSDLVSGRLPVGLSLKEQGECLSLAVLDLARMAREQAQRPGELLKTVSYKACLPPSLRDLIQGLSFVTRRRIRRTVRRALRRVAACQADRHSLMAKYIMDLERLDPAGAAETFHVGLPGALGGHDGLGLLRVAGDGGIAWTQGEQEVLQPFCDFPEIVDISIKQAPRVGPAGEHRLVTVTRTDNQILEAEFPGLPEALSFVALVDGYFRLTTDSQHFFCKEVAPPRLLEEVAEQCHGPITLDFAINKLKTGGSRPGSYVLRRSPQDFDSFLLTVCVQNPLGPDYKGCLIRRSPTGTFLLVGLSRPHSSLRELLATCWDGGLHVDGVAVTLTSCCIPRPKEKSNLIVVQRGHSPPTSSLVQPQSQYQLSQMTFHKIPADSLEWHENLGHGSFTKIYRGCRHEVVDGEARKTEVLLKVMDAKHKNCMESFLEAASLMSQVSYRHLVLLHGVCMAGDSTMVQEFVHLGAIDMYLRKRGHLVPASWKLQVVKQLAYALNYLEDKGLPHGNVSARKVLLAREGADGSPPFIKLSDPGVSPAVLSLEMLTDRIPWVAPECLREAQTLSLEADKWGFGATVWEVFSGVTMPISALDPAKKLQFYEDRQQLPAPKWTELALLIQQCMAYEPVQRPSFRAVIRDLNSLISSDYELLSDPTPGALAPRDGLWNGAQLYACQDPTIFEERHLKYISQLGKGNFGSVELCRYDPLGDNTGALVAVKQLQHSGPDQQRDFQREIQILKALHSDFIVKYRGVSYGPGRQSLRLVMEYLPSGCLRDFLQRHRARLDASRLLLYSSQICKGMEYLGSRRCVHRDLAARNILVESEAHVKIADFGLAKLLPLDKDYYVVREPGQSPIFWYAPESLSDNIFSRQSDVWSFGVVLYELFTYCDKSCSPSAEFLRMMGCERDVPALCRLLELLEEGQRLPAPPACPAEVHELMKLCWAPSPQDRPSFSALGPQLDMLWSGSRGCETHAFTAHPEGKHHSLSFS
The assay can be described thus: JAK3 Inhibition Assay, 33P incorporation. Particulars: enzyme inhibition data (Ki), Table 11. Here is the method: Reactions are carried out in a kinase buffer containing 100 mM HEPES (pH 7.4), 1 mM DTT, 10 mM MgCl2, 25 mM NaCl, and 0.01% BSA. Substrate concentrations in the assay are 5 μM ATP (200 uCi/μmole ATP) and 1 μM poly(Glu)4Tyr. Reactions are carried out at 25° C. and 1 nM JAK3. To each well of a 96 well polycarbonate plate is added 1.5 μl of a candidate JAK3 inhibitor along with 50 μl of kinase buffer containing 2 μM poly(Glu)4Tyr and 10 μM ATP. This is then mixed and 50 μl of kinase buffer containing 2 nM JAK3 enzyme is added to start the reaction. After 20 minutes at room temperature (25 C), the reaction is stopped with 50 μl of 20% trichloroacetic acid (TCA) that also contained 0.4 mM ATP. The entire contents of each well are then transferred to a 96 well glass fiber filter plate using a TomTek Cell Harvester. After washing, 60 μl of scintillation fluid is added and ^33P incorporation detected on a Perkin Elmer TopCount.

pKi: −log10 of the molar value.

The term pKi denotes the negative decadic logarithm of the Ki, by convention in mol/L.

Sequence of c-Met (P08581 25-1390): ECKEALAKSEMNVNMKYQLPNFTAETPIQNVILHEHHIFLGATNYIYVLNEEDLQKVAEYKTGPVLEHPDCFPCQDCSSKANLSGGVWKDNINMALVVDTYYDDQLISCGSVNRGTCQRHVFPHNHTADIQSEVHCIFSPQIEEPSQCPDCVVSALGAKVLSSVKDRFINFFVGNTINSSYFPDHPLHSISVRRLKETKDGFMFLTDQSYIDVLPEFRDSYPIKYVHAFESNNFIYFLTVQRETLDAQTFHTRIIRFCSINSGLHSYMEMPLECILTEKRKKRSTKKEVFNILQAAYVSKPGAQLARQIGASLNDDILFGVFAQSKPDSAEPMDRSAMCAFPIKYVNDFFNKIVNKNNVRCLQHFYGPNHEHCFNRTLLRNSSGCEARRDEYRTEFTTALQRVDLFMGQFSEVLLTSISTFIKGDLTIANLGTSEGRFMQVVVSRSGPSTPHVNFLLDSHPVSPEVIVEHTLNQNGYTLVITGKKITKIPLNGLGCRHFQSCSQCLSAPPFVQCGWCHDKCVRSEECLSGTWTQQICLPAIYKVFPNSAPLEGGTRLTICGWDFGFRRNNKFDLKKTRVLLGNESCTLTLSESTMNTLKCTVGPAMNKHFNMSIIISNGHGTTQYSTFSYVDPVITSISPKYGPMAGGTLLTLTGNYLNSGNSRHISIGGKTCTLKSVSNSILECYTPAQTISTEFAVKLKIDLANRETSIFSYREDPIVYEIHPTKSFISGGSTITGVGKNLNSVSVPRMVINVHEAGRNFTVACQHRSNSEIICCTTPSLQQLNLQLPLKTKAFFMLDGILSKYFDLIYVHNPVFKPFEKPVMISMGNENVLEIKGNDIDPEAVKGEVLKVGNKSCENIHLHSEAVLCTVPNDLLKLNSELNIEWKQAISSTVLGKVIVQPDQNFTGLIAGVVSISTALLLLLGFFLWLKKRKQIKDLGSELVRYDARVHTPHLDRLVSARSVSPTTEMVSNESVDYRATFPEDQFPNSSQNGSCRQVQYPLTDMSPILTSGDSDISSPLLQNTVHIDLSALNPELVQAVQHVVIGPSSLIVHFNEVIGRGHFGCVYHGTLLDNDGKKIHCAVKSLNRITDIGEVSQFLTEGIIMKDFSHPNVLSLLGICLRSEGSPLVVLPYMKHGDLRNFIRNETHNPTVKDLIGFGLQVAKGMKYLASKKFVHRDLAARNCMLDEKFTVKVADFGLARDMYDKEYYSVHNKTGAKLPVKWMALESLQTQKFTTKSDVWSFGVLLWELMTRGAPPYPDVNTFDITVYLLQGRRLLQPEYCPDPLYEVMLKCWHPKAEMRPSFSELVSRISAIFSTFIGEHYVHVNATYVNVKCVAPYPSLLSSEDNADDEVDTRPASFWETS

As for `CN1CCN(c2ccc(-c3cnc4c(-c5ccccn5)c(N)nn4c3)cn2)CC1` [Compound V-145], the results for the pKi in assay [1], in assay [2] and in assay [3] were more than 6.30, more than 6.30 and less than 5.30, respectively.

For the compound `Nc1nn2cc(-c3cccnc3N3CCC[C@H]3CO)cnc2c1-c1ccccn1` [Compound V-262], the results for the pKi in assay [1], in assay [2] and in assay [3] were 5.30 to 6.30, 5.30 to 6.30 and less than 5.30, respectively.

As for `Nc1ccccc1-c1cnc2c(-c3ccccn3)c(N)nn2c1` [Compound V-20], the pKi in assay [1] is 5.30 to 6.30; in assay [2], 5.30 to 6.30; in assay [3], less than 5.30.

For the compound `CCN(CC)CCN(C)CCCc1cnc2c(-c3ccccn3)c(N)nn2c1` [Compound V-321], the figures for the negative-log Ki (pKi) in assay [1], in assay [2] and in assay [3] were 5.30 to 6.30, 5.30 to 6.30 and less than 5.30, respectively.

For the compound `Nc1nn2cc(-c3ccccc3OC(F)F)cnc2c1-c1ccccn1` [Compound V-19], the pKi in assay [1] is 5.30 to 6.30; in assay [2], 5.30 to 6.30; in assay [3], less than 5.30.

`CN(CCc1ccccn1)C(=O)c1cccc(-c2cnc3c(-c4ccccn4)c(N)nn3c2)n1` [Compound V-100]: the negative-log Ki (pKi) was more than 6.30 in assay [1], 5.30 to 6.30 in assay [2] and less than 5.30 in assay [3].

`CCOC(=O)C1CCCN(CCCc2cnc3c(-c4ccccn4)c(N)nn3c2)C1` (stereo not drawn) [Compound V-330]: the pKi in assay [1] is 5.30 to 6.30; in assay [2], 5.30 to 6.30; in assay [3], less than 5.30.

On to `Cc1cnc2c(-c3cc(N4CCC(CCc5ccccc5)C4)ncn3)c(N)nn2c1` (stereo not drawn) [Compound V-304], for which the pKi in assay [1] was 5.30 to 6.30; in assay [2], 5.30 to 6.30; in assay [3], less than 5.30.

`Nc1nn2cc(-c3ccccc3[N+](=O)[O-])cnc2c1-c1ccccn1` [Compound V-21]: the pKi is 5.30 to 6.30 in assay [1], 5.30 to 6.30 in assay [2] and less than 5.30 in assay [3].

As to `Nc1nn2cc(-c3ccncn3)cnc2c1C(=O)N(CCO)Cc1ccccc1` [Compound V-37], the pKi in assay [1] is 5.30 to 6.30; in assay [2], 5.30 to 6.30; in assay [3], less than 5.30.

With `Nc1nn2cc(-c3ccc(C(=O)N4CCC(N5CCCC5)CC4)cn3)cnc2c1-c1ccccn1` [Compound V-84], the negative-log Ki (pKi) in assay [1] is more than 6.30; in assay [2] it was more than 6.30; in assay [3], 5.30 to 6.30.

Take `COC(=O)C1CCCN1C(=O)c1ccc(-c2cnc3c(-c4ccccn4)c(N)nn3c2)nc1` (stereo not drawn) [Compound V-66]: the negative logarithm of the Ki (pKi) in assay [1] was more than 6.30; in assay [2], 5.30 to 6.30; in assay [3], 5.30 to 6.30.

Consider `Nc1nn2cc(-c3ccc(N4CCN(Cc5ccncc5)CC4)nc3)cnc2c1-c1ccccn1` [Compound V-163], for which the results for the pKi in assay [1], in assay [2] and in assay [3] were more than 6.30, 5.30 to 6.30 and less than 5.30, respectively.

Regarding `CCOC(=O)C1CCN(c2cc(-c3cnc4c(-c5ccccn5)c(N)nn4c3)ccn2)CC1` [Compound V-253], the results for the pKi in assay [1], in assay [2] and in assay [3] were 5.30 to 6.30, 5.30 to 6.30 and less than 5.30, respectively.

For the compound `COc1ccc(-c2cnc3c(-c4ccccn4)c(N)nn3c2)cn1` [Compound V-50], the pKi in assay [1] is more than 6.30; in assay [2], 5.30 to 6.30; in assay [3] it was less than 5.30.

As to `Nc1nn2cc(-c3ccnc(NCCCC4=NCC=N4)c3)cnc2c1-c1ccccn1` [Compound V-250], the pKi is more than 6.30 in assay [1], more than 6.30 in assay [2] and 5.30 to 6.30 in assay [3].

Consider `Cc1cnc2c(-c3cc(NCc4cc(Cl)ccc4Cl)ncn3)c(N)nn2c1` [Compound V-275], for which the negative-log Ki (pKi) is 5.30 to 6.30 in assay [1], 5.30 to 6.30 in assay [2] and less than 5.30 in assay [3].

On to `Cc1cnc2c(-c3cc(N4CCC(S(C)(=O)=O)C4)ncn3)c(N)nn2c1` (stereo not drawn) [Compound V-308], for which the negative logarithm of the Ki (pKi) in assay [1], in assay [2] and in assay [3] was more than 6.30 in each case.

In the case of `Nc1nn2cc(-c3ccnc(N4CCC(N5CCCC5)CC4)c3)cnc2c1-c1ccccn1` [Compound V-256], the pKi was 5.30 to 6.30 in assay [1], 5.30 to 6.30 in assay [2] and less than 5.30 in assay [3].

On to `Cc1cnc2c(-c3cc(NC4CC5CCC4C5)ncn3)c(N)nn2c1` (stereo not drawn) [Compound V-333], for which the pKi is more than 6.30 in assay [1], more than 6.30 in assay [2] and 5.30 to 6.30 in assay [3].
